According to patent publication US11535598B2, “Histone deacetylases (HDACs) inhibitors” (ANNJI PHARMACEUTICAL CO., LTD., priority 2017, dated 2022):

Tests used:
[1] = molecular target: Human HDAC1 (Homo sapiens (Human), UniProt Q13547); test: HDAC enzymatic assay, HDAC1; assay type: biochemical; conditions: 10-dose IC50 mode with a 3-fold serial dilution; read-out: HDAC subtypes IC50 HDAC1
Procedure: (§1) The IC50 values for aforementioned compounds against HDACs were determined. HDAC 1 to 11 can be assayed by using acetylated AMC-labeled peptide substrate.
(§2) Human HDAC1 GenBank Accession No. NM_004964): Full length with C-terminal GST tag, MW=79.9 kDa, Human HDAC2 (GenBank Accession No. Q92769): Full length with C-terminal His tag, MW=60 kDa. Human HDAC3/NcoR2 (GenBank Accession No. […] for HDAC3, GenBank Accession No. NM_006312 for NcoR2): Complex of human HDAC3, full length with C-terminal His tag, MW=49.7 kDa, and human NCOR2, N-terminal GST tag, MW=39 kDa. Human HDAC6 (GenBank Accession No. BC069243): Full length with N-terminal GST tag, MW=159 kDa. Human HDAC8 (GenBank Accession No. NM018486): Full length, MW=42 kDa, expressed in an E. coli expression system.
(§3) Human HDAC1, Human HDAC2, Human HDAC3/NcoR2, Human HDAC6, Human HDAC10, and Human HDAC11 were all expressed by baculovirus expression system in Sf9 cells.
(§4) 50 μM HDAC substrate. 1% DMSO final. Incubation for 2 hours at 30° C.

[2] = molecular target: Human HDAC8 (Homo sapiens (Human), UniProt Q9BY41); test: HDAC enzymatic assay, HDAC8; assay type: biochemical; conditions: 10-dose IC50 mode with a 3-fold serial dilution; read-out: HDAC subtypes IC50 HDAC8
Human HDAC8, sequence (Q9BY41 whole entry): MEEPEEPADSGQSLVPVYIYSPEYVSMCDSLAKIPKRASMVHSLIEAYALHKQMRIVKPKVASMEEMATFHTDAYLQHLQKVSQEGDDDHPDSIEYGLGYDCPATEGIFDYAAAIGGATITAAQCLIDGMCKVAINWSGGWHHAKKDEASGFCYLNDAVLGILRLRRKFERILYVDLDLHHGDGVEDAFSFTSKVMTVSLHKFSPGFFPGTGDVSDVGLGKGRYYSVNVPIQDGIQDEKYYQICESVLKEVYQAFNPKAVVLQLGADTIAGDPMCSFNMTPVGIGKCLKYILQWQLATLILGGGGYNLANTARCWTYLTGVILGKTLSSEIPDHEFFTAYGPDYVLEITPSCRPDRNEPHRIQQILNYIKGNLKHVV
Procedure: as §1, §2, §4

[3] = molecular target: Human HDAC6 (Homo sapiens (Human), UniProt Q9UBN7); test: HDAC enzymatic assay, HDAC6; assay type: biochemical; conditions: 10-dose IC50 mode with a 3-fold serial dilution; read-out: HDAC subtypes IC50 HDAC6
Human HDAC6, sequence (Q9UBN7 whole entry): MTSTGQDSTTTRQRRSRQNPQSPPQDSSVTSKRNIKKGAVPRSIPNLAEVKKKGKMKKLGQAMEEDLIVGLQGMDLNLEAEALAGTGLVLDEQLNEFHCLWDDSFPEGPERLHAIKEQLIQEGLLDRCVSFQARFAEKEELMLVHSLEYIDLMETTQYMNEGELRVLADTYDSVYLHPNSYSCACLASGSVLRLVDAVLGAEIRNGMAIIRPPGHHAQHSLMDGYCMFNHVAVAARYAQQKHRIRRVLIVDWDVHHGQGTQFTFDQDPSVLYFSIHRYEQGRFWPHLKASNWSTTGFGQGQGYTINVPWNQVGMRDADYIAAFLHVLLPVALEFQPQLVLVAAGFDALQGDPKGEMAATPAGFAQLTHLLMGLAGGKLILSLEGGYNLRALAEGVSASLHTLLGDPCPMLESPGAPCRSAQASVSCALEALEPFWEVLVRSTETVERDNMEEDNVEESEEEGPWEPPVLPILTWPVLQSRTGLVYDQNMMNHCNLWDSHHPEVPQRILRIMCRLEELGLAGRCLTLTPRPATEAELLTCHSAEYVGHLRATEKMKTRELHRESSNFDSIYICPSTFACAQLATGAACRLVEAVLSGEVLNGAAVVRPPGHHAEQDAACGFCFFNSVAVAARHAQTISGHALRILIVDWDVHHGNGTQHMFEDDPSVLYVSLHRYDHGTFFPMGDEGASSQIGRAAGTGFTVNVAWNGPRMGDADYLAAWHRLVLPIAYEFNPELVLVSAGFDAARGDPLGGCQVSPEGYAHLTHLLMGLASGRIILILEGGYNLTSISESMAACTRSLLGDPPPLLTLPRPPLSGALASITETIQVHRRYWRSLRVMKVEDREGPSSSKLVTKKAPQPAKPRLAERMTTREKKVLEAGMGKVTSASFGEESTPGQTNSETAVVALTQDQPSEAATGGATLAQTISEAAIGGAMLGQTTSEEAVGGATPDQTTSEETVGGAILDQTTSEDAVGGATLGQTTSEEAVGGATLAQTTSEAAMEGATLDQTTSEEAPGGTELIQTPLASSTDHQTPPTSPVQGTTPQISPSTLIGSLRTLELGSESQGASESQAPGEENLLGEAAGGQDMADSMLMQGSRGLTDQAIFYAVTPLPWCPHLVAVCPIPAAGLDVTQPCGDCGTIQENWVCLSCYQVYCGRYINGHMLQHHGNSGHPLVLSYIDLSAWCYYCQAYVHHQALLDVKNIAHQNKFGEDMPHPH
Procedure: as §1, §2, §3, §4

[4] = molecular target: Human HDAC11 (Homo sapiens (Human), UniProt Q96DB2); test: HDAC enzymatic assay, HDAC11; assay type: biochemical; conditions: 10-dose IC50 mode with a 3-fold serial dilution; read-out: HDAC subtypes IC50 HDAC11
Human HDAC11, sequence (Q96DB2 whole entry): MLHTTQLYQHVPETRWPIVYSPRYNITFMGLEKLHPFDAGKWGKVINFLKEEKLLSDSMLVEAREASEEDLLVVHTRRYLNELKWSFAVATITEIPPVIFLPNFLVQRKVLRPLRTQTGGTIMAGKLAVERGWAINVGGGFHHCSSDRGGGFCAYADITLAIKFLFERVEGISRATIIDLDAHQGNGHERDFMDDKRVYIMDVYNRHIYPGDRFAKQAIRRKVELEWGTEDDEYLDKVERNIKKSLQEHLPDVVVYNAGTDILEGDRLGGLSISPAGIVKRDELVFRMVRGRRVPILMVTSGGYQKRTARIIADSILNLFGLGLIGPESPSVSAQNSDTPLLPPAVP
Procedure: as §1, §2, §3, §4

[5] = in vitro; conditions: human
[6] = system: HepG2; conditions: human, 72 h
[7] = system: LNCap; conditions: human, 72 h
[8] = system: A549; conditions: human, 72 h
[9] = system: U87MG; conditions: human, 72 h
[10] = system: PANC1; conditions: human, 72 h
[11] = in vitro; conditions: monkey

Human HDAC1, sequence (Q13547 whole entry): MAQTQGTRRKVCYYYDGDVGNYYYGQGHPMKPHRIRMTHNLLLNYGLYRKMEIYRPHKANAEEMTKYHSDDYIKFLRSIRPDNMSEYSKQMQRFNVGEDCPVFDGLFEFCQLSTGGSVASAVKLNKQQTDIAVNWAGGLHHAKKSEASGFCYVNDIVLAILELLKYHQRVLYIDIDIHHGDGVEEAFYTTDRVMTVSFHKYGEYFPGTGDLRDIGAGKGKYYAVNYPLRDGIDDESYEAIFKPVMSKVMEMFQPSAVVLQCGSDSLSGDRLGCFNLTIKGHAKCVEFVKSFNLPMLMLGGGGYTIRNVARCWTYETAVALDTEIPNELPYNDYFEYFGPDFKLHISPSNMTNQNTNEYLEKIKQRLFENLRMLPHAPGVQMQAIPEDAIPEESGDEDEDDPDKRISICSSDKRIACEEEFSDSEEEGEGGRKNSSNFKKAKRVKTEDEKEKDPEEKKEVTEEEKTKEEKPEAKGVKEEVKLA

Compound | IC50 [1] [µM] | IC50 [2] [µM] | IC50 [3] [µM] | IC50 [4] [µM] | IC50 at 72 h [5] [µM] | IC50 [6] [µM] | IC50 [7] [µM] | IC50 [8] [µM] | IC50 [9] [µM] | IC50 [10] [µM] | IC50 at 72 h [11] [µM]
COc1ccc2c(=O)n(CCc3ccccc3)c(=O)n(Cc3ccc(C(=O)NO)cc3)c2c1 [Compound 2, N-hydroxy-4-((7-methoxy-2,4-dioxo-3-phenethyl-3,4-dihydroquinazol-1(2H)-yl)methyl)benzamide] | 12 | 0.731 | 0.051 |  | > 200 | > 10 | > 10 | > 10 | > 10 | > 10 | > 10
Cn1c(=O)c2ccc(Cl)cc2n(Cc2ccc(C(=O)NO)cc2)c1=O [Compound 10, 4-((7-chloro-3-methyl-2,4-dioxo-3,4-dihydroquinazolin-1(2H)-yl)methyl)-N-hydroxybenzamide] | 2.72 | 0.523 | 0.004 |  | 85.33 ± 0.34 | 6.65 ± 0.22 | 4.72 ± 0.16 | 8.15 ± 0.17 | 7.63 ± 0.12 | 9.04 ± 0.21 | 93.24 ± 0.37
O=C(NO)c1ccc(Cn2c(=O)n(CCc3ccccc3)c(=O)c3cccnc32)cc1 [Compound 12, 4-((2,4-dioxo-3-phenethyl-3,4-dihydropyrido[2,3-d]pyrimidin-1(2H)-yl)methyl)-N-hydroxybenzamide] | 11.2 | 1.07 | 0.028 | 25.1 | 159.1 ± 0.44 | > 10 | 7.53 ± 0.23 | > 10 | 9.12 ± 0.23 | > 10 | 166.4 ± 0.39

Results, then the molecule that gave them:

IC50 [1] [µM] | IC50 [2] [µM] | IC50 [3] [µM] | IC50 [4] [µM] | IC50 at 72 h [5] [µM] | IC50 [6] [µM] | IC50 [7] [µM] | IC50 [8] [µM] | IC50 [9] [µM] | IC50 [10] [µM] | IC50 at 72 h [11] [µM] | Compound
9.41 | 0.095 | 0.008 | 15.4 |  |  |  |  |  |  |  | O=C(NO)c1ccc(Cn2c(=O)n(CCc3ccccc3)c(=O)c3ccc(F)cc32)cc1 [Compound 1, 4-((7-fluoro-2,4-dioxo-3-phenethyl-3,4-dihydroquinazolin-1(2H)-yl)methyl)-N-hydroxybenzamide]
> 10 | 0.653 | 4.3 | > 10 | 69.23 ± 0.27 | 3.41 ± 0.34 | 3.4 ± 0.21 | 4.03 ± 0.12 | 3.75 ± 0.13 | 5.12 ± 0.32 | 78.42 ± 0.22 | O=C(NO)c1cccc(Cn2c(=O)n(CCc3ccccc3)c(=O)c3ccccc32)c1 [Compound 6, 3-((2,4-dioxo-3-phenethyl-3,4-dihydroquinazolin-1(2H)-yl)methyl)-N-hydroxybenzamide]
> 10 | 0.235 | 4.45 |  |  |  |  |  |  |  |  | N#Cc1ccc2c(=O)n(CCc3ccccc3)c(=O)n(Cc3cccc(C(=O)NO)c3)c2c1 [Compound 7, 3-((7-cyano-2,4-dioxo-3-phenethyl-3,4-dihydroquinazolin-1(2H)-yl)methyl)-N-hydroxybenzamide]
15.8 | 0.486 | 0.024 | 37.5 | 89.18 ± 0.62 | 4.39 ± 0.07 | 2.93 ± 0.62 | 4.78 ± 0.11 | 4.08 ± 0.11 | 6.13 ± 0.17 | 97.25 ± 0.31 | O=C(NO)c1ccc(Cn2c(=O)n(Cc3ccccc3)c(=O)c3ccccc32)cc1 [Compound 11, 4-((3-benzyl-2,4-dioxo-3,4-dihydroquinazolin-1(2H)-yl)methyl)-N-hydroxybenzamide]
